In ChEMBL document CHEMBL4014340, “Identification of a Potent, Selective, and Efficacious Phosphatidylinositol 3-Kinase δ (PI3Kδ) Inhibitor for the Treatment of Immunological Disorders” (J Med Chem, 2017):

Tests used:
[1] = Metabolic stability in rat liver microsomes assessed as parent compound remaining at 0.5 uM preincubated for 6 mins followed by NADPH addition measured after 10 mins by LC-MS/MS analysis; assay type: ADME, microsome; details: read-out: Stability
[2] = Metabolic stability in mouse liver microsomes assessed as parent compound remaining at 0.5 uM preincubated for 6 mins followed by NADPH addition measured after 10 mins by LC-MS/MS analysis; assay type: ADME, microsome; details: read-out: Stability
[3] = Metabolic stability in human liver microsomes assessed as parent compound remaining at 0.5 uM preincubated for 6 mins followed by NADPH addition measured after 10 mins by LC-MS/MS analysis; assay type: ADME, microsome; details: read-out: Stability
[4] = Half life in mouse liver microsomes aat 0.5 uM preincubated for 6 mins followed by NADPH addition measured after 10 mins by LC-MS/MS analysis; assay type: ADME, microsome
[5] = AUC (0 to 24 hrs) in Balb/c mouse at 30 mg/kg, po; assay type: ADME, organism-based; parameters: dose 30 mg/kg, time < 24 hr, route oral; details: in vivo
[6] = Half life in rat liver microsomes aat 0.5 uM preincubated for 6 mins followed by NADPH addition measured after 10 mins by LC-MS/MS analysis; assay type: ADME, microsome
[7] = Half life in human liver microsomes aat 0.5 uM preincubated for 6 mins followed by NADPH addition measured after 10 mins by LC-MS/MS analysis; assay type: ADME, microsome
[8] = AUC (0 to 24 hrs) in Balb/c mouse at 100 mg/kg, po; assay type: ADME, organism-based; parameters: dose 100 mg/kg, time < 24 hr, route oral; details: in vivo
[9] = Cmax in Balb/c mouse at 10 mg/kg, po; assay type: ADME, organism-based; parameters: dose 10 mg/kg, route oral; details: in vivo
[10] = AUC (0 to 24 hrs) in Balb/c mouse at 10 mg/kg, po; assay type: ADME, organism-based; parameters: time < 24 hr, dose 10 mg/kg, route oral; details: in vivo

SMILES	remaining at 10 min, 0.5 µM [1]	remaining at 10 min, 0.5 µM [2]	remaining at 10 min, 0.5 µM [3]	other results
CC(=O)N1C[C@@H](C)N(c2cc(-c3cc(C(F)(F)F)c4c(N)ncnn34)ccc2C#N)C(=O)C1(C)C	43%	23%	90%	–
CC(=O)N1CCN(c2cc(-c3cc(Cl)c4c(N)ncnn34)ccc2S(C)(=O)=O)C(=O)C1(C)C	100%	84%	100%	–
CC(=O)N1CCN(c2cccc(-c3cc(Cl)c4c(N)ncnn34)c2)C(=O)C1(C)C	57%	17%	100%	half-life at 0.5 µM [4]: 4 min; AUC(0-t) at 24 h [5]: 2.9 µM·h; half-life at 0.5 µM [6]: 16 min; half-life at 0.5 µM [7]: > 120 min; AUC(0-t) at 24 h [8]: 17 µM·h
CC(=O)N1CCN(c2cccc(-c3cc(-c4cnn(C5CC5)c4)c4c(N)ncnn34)c2)C(=O)C1(C)C	–	–	–	Cmax [9]: 470 nM; AUC(0-t) at 24 h [10]: 1.1 µM·h
CC(=O)N1CCN(c2cccc(-c3cc(Cl)c4c(N)ncnn34)c2C)C(=O)C1(C)C	19%	1%	84%	–
CC(=O)N1CCN(c2cc(-c3cc(C(F)(F)F)c4c(N)ncnn34)ccc2C(F)(F)F)C(=O)C1(C)C	77%	99%	70%	–
CC(=O)N1C[C@@H](C)N(c2cc(-c3cc(Cl)c4c(N)ncnn34)ccc2C#N)C(=O)C1(C)C	59%	22%	82%	–
CC(=O)N1CCN(c2cc(C)cc(-c3cc(Cl)c4c(N)ncnn34)c2)C(=O)C1(C)C	100%	45%	92%	–
CC(=O)N1CCN(c2cc(-c3cc(Cl)c4c(N)ncnn34)ccc2Cl)C(=O)C1(C)C	52%	67%	85%	–
COc1ccc(-c2cc(C(F)(F)F)c3c(N)ncnn23)cc1N1CCN(C(C)=O)C(C)(C)C1=O	100%	100%	95%	–
CC(=O)N1CCN(c2cc(-c3cc(C(F)(F)F)c4c(N)ncnn34)ccc2C(C)O)C(=O)C1(C)C (racemic)	100%	100%	100%	–
CC(=O)N1CCN(c2cc(-c3cc(Cl)c4c(N)ncnn34)ccc2C(C)O)C(=O)C1(C)C (racemic)	100%	100%	100%	–
